Columns and labels:
[1] = test system: TNF-α release from primary human astrocytes; assay: LPS-induced cytokine release from primary human astrocytes, TNF-α; assay type: cell-based
Description: (§1) The following study was undertaken to investigate whether contemplated compounds and (+)NLX affect LPS-induced release of the pro-inflammatory cytokine (IL-1β, IL-6 and TNF-α) release from primary human astrocytes. […]
(§2) Primary astrocytes culture was prepared according to the provider's instructions (Lonza). The adherent astrocytes were trypsinized by 0.25% trypsin-EDTA, then collected and sub-cultured in 12-well plate (1.2 ml/well). […] Vehicle groups were pretreated with 0.1% DMSO only. Following addition of LPS, incubation continued for 24 hours. Culture medium was used as the blank and the levels of cytokines, TNF-α, IL-6 and IL-1β in 200 μl of culture medium were determined. Each well was sampled twice.
(§3) Plates were washed 3 times with ice-cold 50 mM Tris HCl (pH 7.4) and incubated at 30° C. with 200 μl medium derived from the above mentioned conditions. Plates were washed 3 times with ice-cold 50 mM Tris HCl (pH 7.4) and incubated at 30° C. with 0.5 μg/well un-conjugated rabbit anti-anti-INF-α, -IL-6 and -IL-1β for 1 hour. After two 1 minute washes with 50 mM Tris HCl (pH 7.4), each well was incubated in 0.5 μg/well FITC-conjugated anti-rabbit IgG (human and mouse absorbed) for 1 hour at 30° C. Plates were washed twice with 200 μl ice-cold Tris HCl, pH 7.4 and the residual […] signals were determined by multimode plate reader, DTX880 (Beckman).

[2] = test system: IL-6 release from primary human astrocytes; assay: LPS-induced cytokine release from primary human astrocytes, IL-6; assay type: cell-based
Description: as §1, §2, §3

[3] = test system: IL-1β release from primary human astrocytes; assay: LPS-induced cytokine release from primary human astrocytes, IL-1β; assay type: cell-based
Description: as §1, §2, §3

[4] = molecular target: T1, mu opiate receptor (MOR) (Rattus norvegicus, UniProt P33535); assay: MOR agonist activity, [35S]GTPγS binding assay using striatal membranes; assay type: biochemical; design: MOR agonist activity, [35S]GTPγS binding to Gαo: reference not given here; details: for % DAMGO (0.1 μM): 0.1 μM compound relative to DAMGO; for % DAMGO + BFNA: 1 μM compound + BFNA relative to DAMGO + BFNA; for % DAMGO (1 μM): 1 μM compound relative to DAMGO
T1 construct: from tissue; host or cells: striatal membrane preparation (rat striatum)
T1 sequence (P33535 whole entry): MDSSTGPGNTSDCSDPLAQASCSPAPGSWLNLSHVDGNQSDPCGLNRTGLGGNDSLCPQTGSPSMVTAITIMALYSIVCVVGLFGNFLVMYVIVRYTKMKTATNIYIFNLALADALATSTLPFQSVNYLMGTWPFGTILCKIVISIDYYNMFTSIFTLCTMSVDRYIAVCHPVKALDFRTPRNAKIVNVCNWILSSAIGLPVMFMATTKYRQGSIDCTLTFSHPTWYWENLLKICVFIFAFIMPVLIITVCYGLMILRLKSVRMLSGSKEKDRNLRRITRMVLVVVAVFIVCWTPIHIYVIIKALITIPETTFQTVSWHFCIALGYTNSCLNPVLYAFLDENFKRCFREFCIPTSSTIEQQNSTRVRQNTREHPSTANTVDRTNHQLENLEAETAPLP
Description: To assess the mu opiate receptor (MOR) agonist activity of positive compounds from the FLNA screening, compounds were tested in a [^35S]GTPγS binding assay using striatal membranes.
Striatal tissue was homogenized in 10 volumes of ice cold 25 mM HEPES buffer, pH 7.4, which contained 1 mM EGTA, 100 mM sucrose, 50 μg/ml leupeptin, 0.04 mM PMSF, 2 μg/ml soybean trypsin inhibitor and 0.2% 2-mercaptoethanol. The homogenates were centrifuged at 800×g for 5 minutes and the supernatants were centrifuged at 49,000×g for 20 minutes. The resulting pellets were suspended in 10 volume of reaction buffer, which contained 25 mM HEPES, pH 7.5, 100 mM NaCl, 50 μg/ml leupeptin, 2 μg/ml soybean trypsin inhibitor, 0.04 mM PMSF and 0.02% […].
The resultant striatal membrane preparation (200 μg) was admixed and maintained (incubated) at 30° C. for 5 minutes in reaction buffer as above that additionally contained 1 mM MgCl2 and 0.5 nM [^35S]GTPγS (0.1 μCi/assay, PerkinElmer Life and Analytical Sciences) in a total volume of 250 μl and continued for 5 minutes in the absence or presence of 0.1-10 μM of an assayed compound of interest. The reaction was terminated by dilution with 750 μl of ice-cold reaction buffer that contained 20 mM MgCl2 and 1 mM EGTA and immediate centrifugation at 16,000×g for 5 minutes.
The resulting pellet was solubilized by sonicating for 10 seconds in 0.5 ml of immunoprecipitation buffer containing 0.5% digitonin, 0.2% sodium cholate and 0.5% NP-40. Normal rabbit serum (1 μl) was added to 1 ml of lysate and incubated at 25° C. for 30 minutes. Nonspecific immune complexes were removed by incubation with 25 μl of protein A/G-conjugated agarose beads at 25° C. for 30 minutes followed by centrifugation at 5,000×g at 4° C. for 5 minutes. The supernatant was divided and separately incubated at 25° C. for 30 minutes with antibodies raised against Gαo proteins (1:1,000 dilutions).
The immunocomplexes so formed were collected by incubation at 25° C. for 30 minutes with 40 μl of agarose-conjugated protein A/G beads and centrifugation at 5,000×g at 4° C. for 5 minutes. The pellet was washed and suspended in buffer containing 50 mM Tris-HCl, pH 8.0, and 1% NP-40. The radioactivity in the suspension was determined by liquid scintillation spectrometry. […] DAMGO (H-Tyr-D-Ala-Gly-N-MePhe-Gly-OH; 1 or 10 μM) was used as a positive control.

[5] = molecular target: Bn-VAKGL pentapeptide of filamin A (FLNA) (Homo sapiens, UniProt P21333); assay: FITC-NLX-based FLNA screening assay (FLNA peptide binding assay); details: 10 nM FITC-NLX
Description: The final assay volume is 100 μl.
Compounds are tested in triplicate or quadruplicate.

[6] = 10 pM compound 2 hours prior to LPS (1 μg/ml) and continued 24 hours
[7] = 1 nM compound 2 hours prior to LPS (1 μg/ml) and continued 24 hours
[8] = 0.1 μM compound, striatal membranes
[9] = 1 μM compound + BFNA (1 μM β-funaltrexamine)
[10] = 1 μM compound, striatal membranes

SMILES	TNF-α Average % (±SEM) [1, 6]	TNF-α Average % (±SEM) [1, 7]	IL-6 Average % (±SEM) [2, 6]	IL-6 Average % (±SEM) [2, 7]	IL-1β Average % (±SEM) [3, 6]	IL-1β Average % (±SEM) [3, 7]	% DAMGO (0.1 μM) [4]	MOR agonist activity, [35S]GTPγS binding to Gαo [4, 8]	MOR agonist activity, [35S]GTPγS binding to Gαo [4, 9]	% DAMGO + BFNA [4]	% DAMGO (1 μM) [4]	MOR agonist activity, [35S]GTPγS binding to Gαo [4, 10]	Percent inhibition of FITC-NLX binding ([5]; 0.01 μM compound)	Percent inhibition of FITC-NLX binding ([5]; 0.1 μM compound)	Percent inhibition of FITC-NLX binding ([5]; 1 μM compound)
C=CCN1CC[C@]23c4c5ccc(O)c4O[C@H]2C(=O)CC[C@]3(O)[C@H]1C5 [(+)Naloxone, (+)naloxone, reference compound]	58.6 (2.0) %	9.2 (6.0) %	56.9 (4.4) %	6.8 (4.3) %	75.9 (4.5) %	10.5 (4.8) %	–	–	–	–	–	–	–	–	–
COc1ccc(S(=O)(=O)N2CCOC23CCN(C(=O)OC(C)(C)C)CC3)cc1 [Compound C0043]	–	–	–	–	–	–	103.8%	175.4%	83.3%	501.8%	110.9%	242.6%	43.9%	51.3%	58.0%
O=[N+]([O-])c1ccc(S(=O)(=O)N2CCC3(CC2)NCCCO3)cc1 [Compound C0045]	–	–	–	–	–	–	88.3%	149.2%	105.3%	634.3%	109.1%	238.8%	39.1%	48.9%	53.7%
CC(=O)c1ccc(S(=O)(=O)N2CC(CN(C)C)OC23CCN(CC2CC2)CC3)cc1 (stereo not drawn) [Compound C0128M]	–	–	–	–	–	–	–	197.8%	63.9%	–	–	286.0%	–	–	–
COc1ccc(S(=O)(=O)N2CCOC23CCN(C(C)C)CC3)cc1 [Compound C0133M]	–	–	–	–	–	–	–	139.4%	72.4%	–	–	214.8%	–	–	–
Cc1ccc(S(=O)(=O)N2CCOC23CCN(CC2CC2)CC3)cc1 [Compound C0134M]	–	–	–	–	–	–	–	158.5%	46.6%	–	–	207.3%	–	–	–

— patent publication US8614324B2, “Filamin A binding anti-inflammatory and analgesic” (priority 2008, dated 2013)
